Source: ChEMBL document CHEMBL5233254, “Anticancer fungal natural products: Mechanisms of action and biosynthesis” (Eur J Med Chem, 2020)
In brackets after ≈: the same amount, converted by molar mass. Blank lines part the entries; values can stand above or below the molecule they belong to.

Legend:
[1] = Inhibition of full-length human MEK
MCF7 = assay: Cytotoxicity against human MCF7 cells; type: functional, cell-based
[2] = Inhibition of V-ATPase (unknown origin); parameters: species or system Homo sapiens
14-3-3 eta/c-RAF = 14-3-3 eta/c-RAF (Homo sapiens, UniProt P04049+Q04917); assay: Stabilization of 14-3-3 eta (unknown origin)/ c-Raf (unknown origin); type: protein-complex assay
[3] = Anti-tumor activity against mouse lewis lung carcinoma cells allografted in mouse assessed as reduction in tumor growth at 2 mg/kg, po; type: functional; parameters: scale not given: the % may be the effect or the level left
[4] = target: T1, Heat shock factor protein 1 (Homo sapiens, UniProt Q00613); assay: Induction of HSF-1 (unknown origin) degradation assessed as ATPase activity by colorimetric assay
T1 sequence (Q00613 whole entry): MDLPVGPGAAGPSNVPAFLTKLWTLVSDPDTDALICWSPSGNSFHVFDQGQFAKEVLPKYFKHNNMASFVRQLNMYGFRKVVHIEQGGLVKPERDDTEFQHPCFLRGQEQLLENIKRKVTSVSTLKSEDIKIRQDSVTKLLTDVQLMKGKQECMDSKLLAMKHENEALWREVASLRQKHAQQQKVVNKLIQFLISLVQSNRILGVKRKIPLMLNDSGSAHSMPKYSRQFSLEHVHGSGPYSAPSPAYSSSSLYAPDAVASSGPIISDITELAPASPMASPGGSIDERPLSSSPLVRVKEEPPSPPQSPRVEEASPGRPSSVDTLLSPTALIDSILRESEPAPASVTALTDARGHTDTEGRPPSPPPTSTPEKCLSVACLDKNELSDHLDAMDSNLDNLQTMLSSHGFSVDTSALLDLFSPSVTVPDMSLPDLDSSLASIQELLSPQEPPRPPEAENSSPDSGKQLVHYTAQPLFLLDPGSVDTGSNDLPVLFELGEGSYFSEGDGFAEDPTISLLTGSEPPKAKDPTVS

[5] = Inhibition of PI3K (unknown origin); parameters: species or system Homo sapiens
Tubulin (Homo sapiens) = Tubulin (Homo sapiens) (UniProt P68371+Q9H4B7+P0DPH7+P68366+Q13509+Q71U36+P04350+Q3ZCM7+P07437+P68363+Q9BQE3+Q6PEY2+Q13885+Q9BVA1+Q9BUF5); assay: Inhibition of microtubule polymerization in human HeLa cells at 20 uM relative to control; type: cell-based
Tubulin = assay: Binding affinity to tubulin (unknown origin) assessed as dissociation constant; type: protein-complex assay, Homo sapiens
HeLa = assay: Antimitotic activity against human HeLa cells; type: functional, cell-based
[6] = Cytotoxicity against human endothelial cells; type: toxicity, cell-based; settings: endothelial cell

14-3-3 eta/c-RAF, sequence (P04049 whole entry): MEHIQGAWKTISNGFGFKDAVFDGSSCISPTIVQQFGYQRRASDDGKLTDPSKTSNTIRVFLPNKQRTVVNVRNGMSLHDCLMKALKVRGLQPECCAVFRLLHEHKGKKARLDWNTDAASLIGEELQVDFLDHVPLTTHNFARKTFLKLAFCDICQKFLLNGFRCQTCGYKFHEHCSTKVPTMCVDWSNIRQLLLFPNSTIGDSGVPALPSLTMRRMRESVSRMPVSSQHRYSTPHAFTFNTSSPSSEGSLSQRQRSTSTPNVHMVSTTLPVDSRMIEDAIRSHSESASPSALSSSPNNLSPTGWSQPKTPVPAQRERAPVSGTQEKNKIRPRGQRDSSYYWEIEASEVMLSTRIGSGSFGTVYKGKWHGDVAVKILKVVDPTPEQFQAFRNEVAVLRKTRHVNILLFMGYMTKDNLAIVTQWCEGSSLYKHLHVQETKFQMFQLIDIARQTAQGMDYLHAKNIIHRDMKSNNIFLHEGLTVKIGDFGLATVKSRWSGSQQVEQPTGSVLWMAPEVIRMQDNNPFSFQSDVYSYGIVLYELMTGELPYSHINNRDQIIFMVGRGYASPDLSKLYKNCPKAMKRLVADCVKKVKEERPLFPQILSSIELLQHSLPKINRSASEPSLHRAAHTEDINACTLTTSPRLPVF
14-3-3 eta/c-RAF, sequence (Q04917 whole entry): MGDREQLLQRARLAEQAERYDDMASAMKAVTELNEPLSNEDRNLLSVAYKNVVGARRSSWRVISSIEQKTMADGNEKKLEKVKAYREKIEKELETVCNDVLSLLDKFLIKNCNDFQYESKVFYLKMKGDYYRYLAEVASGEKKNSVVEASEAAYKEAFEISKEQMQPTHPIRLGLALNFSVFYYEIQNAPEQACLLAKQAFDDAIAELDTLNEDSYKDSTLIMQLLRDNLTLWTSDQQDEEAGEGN

SMILES: COc1cc(O)c2c(c1)CCC[C@H](O)[C@H](O)C(=O)/C=C\C[C@H](C)OC2=O
IC50 [1]: 4 µM

SMILES: C[C@]12CCC3=C(C(=O)c4occ5c4[C@]3(C)CCC5=O)[C@@H]1CC[C@@H]2O
IC50 (MCF7): 15 µM

SMILES: CC[C@@H](C)[C@@H]1NC(=O)[C@H]2CCCN2C(=O)[C@@H](CC(C)C)OC(=O)CCNC(=O)[C@H](C)N(C)C(=O)[C@H](C(C)C)N(C)C1=O
IC50 [2]: 5.4 µM

SMILES: COC[C@H]1O[C@@H](O[C@@H]2C3=C(C(C)C)CC[C@]3(C)/C=C3\[C@@H](CC[C@]3(O)COC)[C@@H](C)[C@H]2O)[C@H](O)[C@H]2OC3O[C@]21O[C@@]3(C)[C@@H]1CO1
EC50 (14-3-3 eta/c-RAF): 60 µM

SMILES: C[C@H]1C/C=C/[C@H]2[C@@H]3O[C@]3(C)[C@@H](C)[C@H]3[C@H](Cc4ccccc4)NC(=O)[C@]32OC(=O)O/C=C/[C@@](C)(O)C1=O [CYTOCHALASIN E]
Activity [3]: 72%

IC50 [4]: 15.3 µM
SMILES: C[C@H]1CCC/C=C/C(=O)c2c(O)cc(O)cc2CC(=O)O1 [DEHYDROCURVULARIN]

SMILES: C[C@@]12c3ccc4c(c3C(=O)c3occ(c31)C(=O)C[C@H]2O)CCC4=O [DEMETHOXYVIRIDIN]
IC50 [5]: 0.0066 µM

inhibition (Tubulin (Homo sapiens)): 75% | Kd (Tubulin): 300 µM | IC50 (HeLa): 25 µM
SMILES: COC1=CC(=O)C[C@@H](C)[C@]12Oc1c(Cl)c(OC)cc(OC)c1C2=O [GRISEOFULVIN]

SMILES: CO[C@@H]1[C@H](OC(=O)NC(=O)CCl)CC[C@]2(CO2)[C@H]1[C@@]1(C)O[C@@H]1CC=C(C)C [O-CHLOROACETYLCARBAMOYLFUMAGILLOL]
IC50 [6]: 0.01 ng/mL (≈ 0.0249 nM)
